Laboratory results as given in ChEMBL document CHEMBL4414598, “Trifluorinated Pyrimidine-Based A2B Antagonists: Optimization and Evidence of Stereospecific Recognition” (J Med Chem, 2019).

Key:
Adenosine receptor A2a [1] = molecular target: T1, Adenosine receptor A2a (Homo sapiens, UniProt P29274); assay: Displacement of [3H]ZM241385 from human recombinant A2A receptor expressed in human HeLa cell membranes incubated for 30 mins by radioligand binding competition assay
[2] = molecular target: T2, Adenosine receptor A1 (Homo sapiens) (UniProt P30542); assay: Displacement of [3H]DPCPX from human recombinant A1 receptor expressed in CHOA1 cell membranes at 1 uM incubated for 60 mins by radioligand binding competition assay relative to control
T2 sequence (whole entry): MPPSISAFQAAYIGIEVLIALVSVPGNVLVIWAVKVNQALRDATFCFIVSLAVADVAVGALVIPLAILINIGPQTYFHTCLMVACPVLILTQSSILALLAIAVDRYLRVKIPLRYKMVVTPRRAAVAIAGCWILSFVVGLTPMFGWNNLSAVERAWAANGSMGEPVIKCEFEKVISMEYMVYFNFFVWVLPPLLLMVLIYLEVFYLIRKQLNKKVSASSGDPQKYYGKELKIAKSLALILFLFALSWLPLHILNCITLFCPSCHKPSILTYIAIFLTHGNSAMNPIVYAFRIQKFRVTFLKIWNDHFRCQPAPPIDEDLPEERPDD

Adenosine receptor A1 = molecular target: T3, Adenosine receptor A1 (Homo sapiens, UniProt P30542); assay: Displacement of [3H]DPCPX from human recombinant A1 receptor expressed in CHOA1 cell membranes incubated for 60 mins by radioligand binding competition assay
T3 sequence (P30542 whole entry): T2 sequence (whole entry)

Adenosine receptor A2a [3] = molecular target: T1, Adenosine receptor A2a; assay: Displacement of [3H]ZM241385 from human recombinant A2A receptor expressed in human HeLa cell membranes at 1 uM incubated for 30 mins by radioligand binding competition assay relative to control
Adenosine receptor A3 = molecular target: T4, Adenosine receptor A3 (Homo sapiens, UniProt P0DMS8); assay: Displacement of [3H]NECA from human A3 receptor expressed in human HeLa cell membranes incubated for 180 mins by radioligand binding competition assay
T4 sequence (P0DMS8 whole entry): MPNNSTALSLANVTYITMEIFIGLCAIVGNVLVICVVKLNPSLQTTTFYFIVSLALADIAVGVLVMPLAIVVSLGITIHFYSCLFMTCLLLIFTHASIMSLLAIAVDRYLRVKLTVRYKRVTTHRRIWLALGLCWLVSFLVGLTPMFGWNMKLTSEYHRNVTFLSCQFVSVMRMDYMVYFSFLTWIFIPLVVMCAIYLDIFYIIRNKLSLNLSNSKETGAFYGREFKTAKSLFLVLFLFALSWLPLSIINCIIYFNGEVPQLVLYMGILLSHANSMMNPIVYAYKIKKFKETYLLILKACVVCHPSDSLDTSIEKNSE

[4] = molecular target: T5, Adenosine receptor A3 (Homo sapiens) (UniProt P0DMS8); assay: Displacement of [3H]NECA from human A3 receptor expressed in human HeLa cell membranes at 1 uM incubated for 180 mins by radioligand binding competition assay relative to control
T5 sequence (whole entry): T4 sequence (P0DMS8 whole entry)

Adenosine receptor A2b = molecular target: T6, Adenosine receptor A2b (Homo sapiens, UniProt P29275); assay: Displacement of [3H]DPCPX from human recombinant A2B receptor expressed in human HEK293 cell membranes incubated for 30 mins by radioligand binding competition assay
T6 sequence (P29275 whole entry): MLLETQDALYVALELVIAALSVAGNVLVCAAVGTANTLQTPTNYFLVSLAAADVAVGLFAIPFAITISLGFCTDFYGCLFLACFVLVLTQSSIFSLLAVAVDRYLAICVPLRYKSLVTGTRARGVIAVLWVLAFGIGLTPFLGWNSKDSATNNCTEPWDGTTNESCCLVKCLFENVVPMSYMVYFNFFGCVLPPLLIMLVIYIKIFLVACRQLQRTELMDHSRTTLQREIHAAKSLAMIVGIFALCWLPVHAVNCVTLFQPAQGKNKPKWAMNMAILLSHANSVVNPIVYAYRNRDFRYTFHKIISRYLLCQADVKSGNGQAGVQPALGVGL

Homo sapiens [5] = organism: Homo sapiens; assay: (§1) Selectivity index, ratio of Ki for displacement of [3H]NECA from human A3 receptor expressed in human HeLa cell membranes incubated for 180 mins by radioligand binding competition assay to Ki for displacement of [3H]DPCPX from human recombinant A2B receptor expressed in human HEK293 cell membranes at 1 uM incubated for 30 mins by radioligand binding competition assay
Homo sapiens [6] = organism: Homo sapiens; assay: as §1, with “[3H]DPCPX” for “[3H]NECA”, “recombinant A1” for “A3”, “CHOA1” for “human HeLa”, “60” for “180”
Homo sapiens [7] = organism: Homo sapiens; assay: as §1, with “[3H]ZM241385” for “[3H]NECA”, “recombinant A2A” for “A3”, “30” for “180”
[8] = molecular target: T7, Adenosine receptor A2b (Homo sapiens) (UniProt P29275); assay: Displacement of [3H]DPCPX from human recombinant A2B receptor expressed in human HEK293 cell membranes at 1 uM incubated for 30 mins by radioligand binding competition assay relative to control
T7 sequence (whole entry): T6 sequence (P29275 whole entry)

T1 sequence (P29274 whole entry): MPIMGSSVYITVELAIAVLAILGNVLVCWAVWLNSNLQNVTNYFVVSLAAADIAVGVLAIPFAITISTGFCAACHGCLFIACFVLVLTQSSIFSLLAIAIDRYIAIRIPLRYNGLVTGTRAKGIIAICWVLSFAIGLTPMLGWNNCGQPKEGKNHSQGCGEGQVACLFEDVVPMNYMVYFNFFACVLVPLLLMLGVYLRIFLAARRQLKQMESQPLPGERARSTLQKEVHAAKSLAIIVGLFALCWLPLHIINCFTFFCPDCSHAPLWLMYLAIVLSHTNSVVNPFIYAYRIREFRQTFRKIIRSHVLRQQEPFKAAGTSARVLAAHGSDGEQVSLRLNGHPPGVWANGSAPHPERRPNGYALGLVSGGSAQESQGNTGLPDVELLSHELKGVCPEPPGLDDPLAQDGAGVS

## CC1=C(C(=O)OC(C)C)C(c2ccco2)n2c(nc3ccccc32)N1 (stereo not drawn)
Adenosine receptor A2a [1]
  Ki: 28 nM
[2]
  inhibition: 20%
Adenosine receptor A1
  Ki: 20 nM
Adenosine receptor A2a [3]
  inhibition: 28%
Adenosine receptor A3
  Ki: 2 nM
[4]
  inhibition: 2%

## CC1=C(C(=O)O[C@@H](C)C(F)(F)F)[C@@H](c2ccco2)n2c(nc3ccccc32)N1
[2]
  inhibition: 22%
Adenosine receptor A2b
  Ki: 8.73 nM
Adenosine receptor A2a [3]
  inhibition: 5%
[4]
  inhibition: 21%

## CC1=C(C(=O)OCC(F)(F)F)[C@@H](c2ccco2)n2c(nc3ccccc32)N1
[2]
  inhibition: 9%
Adenosine receptor A2b
  Ki: 11.2 nM
Adenosine receptor A2a [3]
  inhibition: 1%
[4]
  inhibition: 7%

## CC1=C(C(=O)O[C@H](C)C(F)(F)F)[C@@H](c2ccco2)n2c(nc3ccccc32)N1
[2]
  inhibition: 12%
Adenosine receptor A2b
  Ki: 6.91 nM
Adenosine receptor A2a [3]
  inhibition: 1%
[4]
  inhibition: 14%

## CCOC(=O)C1=C(C(F)(F)F)Nc2nc3ccccc3n2[C@@H]1c1ccoc1
[2]
  inhibition: 11%
Adenosine receptor A2b
  Ki: 13.7 nM
Adenosine receptor A2a [3]
  inhibition: 9%
[4]
  inhibition: 3%

## CC1=C(C(=O)O[C@@H](C)C(F)(F)F)C(c2ccco2)n2c(nc3ccccc32)N1 (mixture of isomers)
[2]
  inhibition: 26%
Adenosine receptor A2b
  Ki: 15.1 nM
Adenosine receptor A2a [3]
  inhibition: 1%
[4]
  inhibition: 7%

## CC1=C(C(=O)O[C@H](C)C(F)(F)F)C(c2ccco2)n2c(nc3ccccc32)N1 (mixture of isomers)
[2]
  inhibition: 12%
Adenosine receptor A2b
  Ki: 17 nM
Adenosine receptor A2a [3]
  inhibition: 11%
[4]
  inhibition: 23%

## CC(C)OC(=O)C1=C(C(F)(F)F)Nc2nc3ccccc3n2C1c1ccoc1 (racemic)
Homo sapiens [5]
  Ratio Ki: > 1000
[2]
  inhibition: 8%
Adenosine receptor A2b
  Ki: 49.2 nM
Homo sapiens [6]
  Ratio Ki: > 1000
Adenosine receptor A2a [3]
  inhibition: 23%
[4]
  inhibition: 23%
Homo sapiens [7]
  Ratio Ki: > 1000

## CC1=C(C(=O)OCC(F)(F)F)C(c2ccoc2)NC(=O)N1 (racemic)
[2]
  inhibition: 13%
Adenosine receptor A2b
  Ki: 588 nM
Adenosine receptor A2a [3]
  inhibition: 9%
[4]
  inhibition: 1%

## CC1=C(C(=O)OCC(F)(F)F)C(c2ccco2)NC(=O)N1 (racemic)
[2]
  inhibition: 10%
Adenosine receptor A2b
  Ki: 157 nM
Adenosine receptor A2a [3]
  inhibition: 1%
[4]
  inhibition: 1%

## CC1=C(C(=O)OC(C)C(F)(F)F)C(c2ccco2)n2c(nc3ccccc32)N1 (racemic)
[2]
  inhibition: 3%
Adenosine receptor A2b
  Ki: 29.6 nM
Adenosine receptor A2a [3]
  inhibition: 4%
[4]
  inhibition: 18%

## CCOC(=O)C1=C(C(F)(F)F)Nc2nc3ccccc3n2C1c1ccoc1 (racemic)
[2]
  inhibition: 9%
Adenosine receptor A2b
  Ki: 37.4 nM
Adenosine receptor A2a [3]
  inhibition: 18%
[4]
  inhibition: 6%

## CCOC(=O)C1=C(C(F)(F)F)NC(=O)NC1c1ccsc1 (racemic)
[2]
  inhibition: 32%
Adenosine receptor A2b
  Ki: 575 nM
Adenosine receptor A2a [3]
  inhibition: 46%
[4]
  inhibition: 3%

## CCOC(=O)C1=C(C(F)(F)F)NC(=O)NC1c1ccoc1 (racemic)
[2]
  inhibition: 37%
Adenosine receptor A2b
  Ki: 521 nM
Adenosine receptor A2a [3]
  inhibition: 55%
[4]
  inhibition: 1%

## CC1=C(C(=O)OCC(F)(F)F)C(c2ccco2)n2c(nc3ccccc32)N1 (racemic)
[2]
  inhibition: 16%
Adenosine receptor A2b
  Ki: 27 nM
Adenosine receptor A2a [3]
  inhibition: 7%
[4]
  inhibition: 23%

## CCOC(=O)C1=C(C(F)(F)F)Nc2nc3ccccc3n2C1c1ccco1 (racemic)
[2]
  inhibition: 11%
Adenosine receptor A2b
  Ki: 731 nM
Adenosine receptor A2a [3]
  inhibition: 4%
[4]
  inhibition: 20%

## CCOC(=O)C1=C(C(F)(F)F)Nc2nc3ccccc3n2C1c1ccsc1 (racemic)
[2]
  inhibition: 16%
Adenosine receptor A2b
  Ki: 118 nM
Adenosine receptor A2a [3]
  inhibition: 13%
[4]
  inhibition: 29%

## CC(C)OC(=O)C1=C(C(F)(F)F)NC(=O)NC1c1ccco1 (racemic)
[2]
  inhibition: 11%
Adenosine receptor A2b
  Ki: 238 nM
Adenosine receptor A2a [3]
  inhibition: 24%
[4]
  inhibition: 5%

## CC1=C(C(=O)OCC(F)(F)F)C(c2ccoc2)n2c(nc3ccccc32)N1 (racemic)
Homo sapiens [5]
  Ratio Ki: > 1000
[2]
  inhibition: 14%
Adenosine receptor A2b
  Ki: 42.1 nM
Homo sapiens [6]
  Ratio Ki: > 1000
Adenosine receptor A2a [3]
  inhibition: 11%
[4]
  inhibition: 1%
Homo sapiens [7]
  Ratio Ki: > 1000

## CC1=C(C(=O)OC(C)C(F)(F)F)C(c2ccoc2)n2c(nc3ccccc32)N1 (racemic)
Homo sapiens [5]
  Ratio Ki: > 1000
[2]
  inhibition: 2%
Adenosine receptor A2b
  Ki: 52.3 nM
Homo sapiens [6]
  Ratio Ki: > 1000
Adenosine receptor A2a [3]
  inhibition: 3%
[4]
  inhibition: 3%
Homo sapiens [7]
  Ratio Ki: > 1000

## CC(C)OC(=O)C1=C(C(F)(F)F)NC(=O)NC1c1ccsc1 (racemic)
[2]
  inhibition: 23%
Adenosine receptor A2b
  Ki: 651 nM
Adenosine receptor A2a [3]
  inhibition: 9%
[4]
  inhibition: 3%

## CC1=C(C(=O)OC(C)C(F)(F)F)C(c2ccco2)NC(=O)N1 (stereo in doubt; 14i-D1)
Adenosine receptor A2b
  Ki: 61.5 nM

## CC1=C(C(=O)OC(C)C(F)(F)F)C(c2ccco2)NC(=O)N1 (stereo in doubt; 14i-D2)
Adenosine receptor A2b
  Ki: 303 nM

## CC1=C(C(=O)OC(C)C(F)(F)F)C(c2ccoc2)NC(=O)N1 (stereo in doubt; 14j-D1)
Adenosine receptor A2b
  Ki: 234 nM

## CC1=C(C(=O)OC(C)C(F)(F)F)C(c2ccsc2)NC(=O)N1 (stereo in doubt; 14l-D1)
Adenosine receptor A2b
  Ki: 643 nM

## CC1=C(C(=O)OC(C)C(F)(F)F)C(c2ccsc2)NC(=O)N1 (stereo in doubt; 14l-D2)
[2]
  inhibition: 3%
Adenosine receptor A2a [3]
  inhibition: 2%
[4]
  inhibition: 1%
[8]
  inhibition: 1%
